pIC50: −log10 of the molar value.
Legend:
Glucocorticoid receptor [1] = target: T1, Glucocorticoid receptor (Homo sapiens, UniProt P04150); assay: Displacement of TAMRA-labeled dexamethasone from glucocorticoid receptor (unknown origin) by fluorescence polarization competitive binding assay
T1 sequence (P04150 whole entry): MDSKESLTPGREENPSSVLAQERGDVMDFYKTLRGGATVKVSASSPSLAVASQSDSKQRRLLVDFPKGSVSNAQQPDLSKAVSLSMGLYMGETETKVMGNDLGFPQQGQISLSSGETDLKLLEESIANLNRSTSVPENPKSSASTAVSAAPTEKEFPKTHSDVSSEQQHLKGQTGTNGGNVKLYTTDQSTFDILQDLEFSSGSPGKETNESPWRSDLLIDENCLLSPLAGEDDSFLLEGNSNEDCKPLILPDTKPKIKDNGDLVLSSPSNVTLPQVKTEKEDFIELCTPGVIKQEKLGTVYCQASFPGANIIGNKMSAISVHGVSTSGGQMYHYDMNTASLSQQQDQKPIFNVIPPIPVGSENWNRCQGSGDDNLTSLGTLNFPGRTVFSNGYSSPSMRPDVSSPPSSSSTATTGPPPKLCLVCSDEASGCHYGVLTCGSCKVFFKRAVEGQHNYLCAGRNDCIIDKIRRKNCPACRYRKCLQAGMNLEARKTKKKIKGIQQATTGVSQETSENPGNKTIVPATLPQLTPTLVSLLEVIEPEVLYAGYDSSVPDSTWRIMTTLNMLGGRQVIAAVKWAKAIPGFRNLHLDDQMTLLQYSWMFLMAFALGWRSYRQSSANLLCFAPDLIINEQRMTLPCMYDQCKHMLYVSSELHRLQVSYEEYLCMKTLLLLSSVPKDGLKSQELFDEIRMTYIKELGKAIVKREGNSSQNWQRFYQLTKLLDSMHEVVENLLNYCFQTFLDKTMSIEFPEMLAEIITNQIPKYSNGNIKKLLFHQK

Glucocorticoid receptor [2] = target: T1, Glucocorticoid receptor; assay: Agonist activity at glucocorticoid receptor in HFF assessed as inhibition of IL-1-induced IL-6 production after 24 hrs
Progesterone receptor = target: T2, Progesterone receptor (Homo sapiens, UniProt P06401); assay: Displacement of TAMRA-labeled mifepristone from progesterone receptor (unknown origin) by fluorescence polarization competitive binding assay
T2 sequence (P06401 whole entry): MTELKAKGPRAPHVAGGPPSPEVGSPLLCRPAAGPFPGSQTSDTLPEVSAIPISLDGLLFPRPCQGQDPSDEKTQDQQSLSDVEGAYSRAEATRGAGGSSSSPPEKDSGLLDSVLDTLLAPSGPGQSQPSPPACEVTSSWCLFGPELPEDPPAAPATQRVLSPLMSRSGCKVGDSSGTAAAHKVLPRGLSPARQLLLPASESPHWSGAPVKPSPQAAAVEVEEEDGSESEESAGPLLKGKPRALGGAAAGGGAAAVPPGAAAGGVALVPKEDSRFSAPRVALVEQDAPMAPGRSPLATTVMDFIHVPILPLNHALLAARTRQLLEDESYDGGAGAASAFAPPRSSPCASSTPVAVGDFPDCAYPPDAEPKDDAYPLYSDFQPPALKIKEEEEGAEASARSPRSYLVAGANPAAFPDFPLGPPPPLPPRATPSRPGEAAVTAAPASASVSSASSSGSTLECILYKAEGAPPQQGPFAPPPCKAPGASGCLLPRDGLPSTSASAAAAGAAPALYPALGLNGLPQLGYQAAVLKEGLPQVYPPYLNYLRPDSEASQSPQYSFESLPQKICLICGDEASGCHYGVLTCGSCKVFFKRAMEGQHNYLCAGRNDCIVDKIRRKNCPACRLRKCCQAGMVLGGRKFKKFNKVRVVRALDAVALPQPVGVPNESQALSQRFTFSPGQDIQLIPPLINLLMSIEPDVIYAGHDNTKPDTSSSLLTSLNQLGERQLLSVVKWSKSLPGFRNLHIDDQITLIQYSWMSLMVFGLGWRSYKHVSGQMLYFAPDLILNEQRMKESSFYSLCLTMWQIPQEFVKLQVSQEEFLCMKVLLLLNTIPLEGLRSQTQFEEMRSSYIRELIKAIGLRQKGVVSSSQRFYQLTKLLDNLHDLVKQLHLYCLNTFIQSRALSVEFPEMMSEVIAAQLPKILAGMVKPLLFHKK

[3] = target: T3, Mineralocorticoid receptor (Homo sapiens, UniProt P08235); assay: Binding affinity to mineralocorticoid receptor (unknown origin) by fluorescence polarization competitive binding assay
T3 sequence (P08235 whole entry): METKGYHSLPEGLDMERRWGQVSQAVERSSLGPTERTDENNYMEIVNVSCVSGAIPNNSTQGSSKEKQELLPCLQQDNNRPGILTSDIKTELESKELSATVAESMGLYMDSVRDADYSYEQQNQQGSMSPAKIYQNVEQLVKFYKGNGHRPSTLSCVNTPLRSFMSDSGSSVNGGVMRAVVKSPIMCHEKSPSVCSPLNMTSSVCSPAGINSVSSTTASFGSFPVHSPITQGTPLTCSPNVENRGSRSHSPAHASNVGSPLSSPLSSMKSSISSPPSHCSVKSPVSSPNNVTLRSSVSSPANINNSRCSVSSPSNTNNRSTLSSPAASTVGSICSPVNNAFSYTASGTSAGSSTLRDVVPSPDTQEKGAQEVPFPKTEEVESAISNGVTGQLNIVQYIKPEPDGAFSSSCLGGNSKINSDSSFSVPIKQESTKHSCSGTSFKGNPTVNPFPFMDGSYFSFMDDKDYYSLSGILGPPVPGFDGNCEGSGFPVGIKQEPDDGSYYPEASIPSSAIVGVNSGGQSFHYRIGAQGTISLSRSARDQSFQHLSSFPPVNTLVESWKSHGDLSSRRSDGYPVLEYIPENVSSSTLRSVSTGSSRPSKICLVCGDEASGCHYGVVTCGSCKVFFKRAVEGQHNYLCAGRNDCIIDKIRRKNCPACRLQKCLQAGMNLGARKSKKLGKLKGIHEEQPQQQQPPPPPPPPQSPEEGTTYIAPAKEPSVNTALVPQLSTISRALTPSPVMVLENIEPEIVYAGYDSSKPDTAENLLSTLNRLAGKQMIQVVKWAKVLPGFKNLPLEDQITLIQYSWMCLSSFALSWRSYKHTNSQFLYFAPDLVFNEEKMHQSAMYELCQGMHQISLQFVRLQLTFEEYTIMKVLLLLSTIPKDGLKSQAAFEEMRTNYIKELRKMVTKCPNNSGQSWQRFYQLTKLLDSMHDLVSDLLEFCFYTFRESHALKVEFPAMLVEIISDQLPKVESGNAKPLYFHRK

Homo sapiens = species on record: Homo sapiens; assay: Selectivity ratio of IC50 for mineralocorticoid receptor (unknown origin) to IC50 for glucocorticoid receptor (unknown origin)
Mus musculus [4] = species on record: Mus musculus; assay: Antiarthritic activity in collagen antibody-induced arthritis mouse model; type: functional
[5] = Half life in human liver microsomes; type: ADME
Mus musculus [6] = species on record: Mus musculus; assay: Antiinflammatory activity in mouse assessed as inhibition of LPS-stimulated TNFalpha production; type: functional
Cytochrome P450 3A4 = Cytochrome P450 3A4 (Homo sapiens, UniProt P08684); assay: Inhibition of CYP3A4 (unknown origin) using 7-benzyloxy-4-trifluoromethylcoumarin as substrate; type: ADME
Sequence of Cytochrome P450 3A4 (P08684 whole entry): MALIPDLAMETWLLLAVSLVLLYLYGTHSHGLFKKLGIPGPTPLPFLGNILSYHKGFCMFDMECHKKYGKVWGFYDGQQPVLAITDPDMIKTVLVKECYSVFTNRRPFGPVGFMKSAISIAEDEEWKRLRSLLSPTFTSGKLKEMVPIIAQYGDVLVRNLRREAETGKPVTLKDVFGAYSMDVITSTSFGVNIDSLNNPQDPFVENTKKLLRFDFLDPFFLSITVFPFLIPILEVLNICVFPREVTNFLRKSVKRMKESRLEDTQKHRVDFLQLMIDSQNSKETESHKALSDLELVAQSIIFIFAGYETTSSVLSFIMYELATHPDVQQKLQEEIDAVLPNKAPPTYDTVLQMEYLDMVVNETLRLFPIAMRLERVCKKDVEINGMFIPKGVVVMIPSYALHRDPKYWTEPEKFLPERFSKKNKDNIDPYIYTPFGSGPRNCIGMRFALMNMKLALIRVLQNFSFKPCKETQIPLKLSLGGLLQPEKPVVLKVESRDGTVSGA

Row | Compound | pIC50 (Glucocorticoid receptor [1]) | pIC50 (Glucocorticoid receptor [2]) | pIC50 (Progesterone receptor) | pIC50 [3] | Ratio IC50 (Homo sapiens) | half-life [5] [min] | pIC50 (Cytochrome P450 3A4) | ED50 (Mus musculus [4]) [mg/kg] | ED50 (Mus musculus [6]) [mg/kg]
1 | Cc1cc(C)c(S(=O)(=O)NC(Cc2c[nH]c3c(C)cccc23)C(F)(F)F)c(C)c1 (stereo not drawn) | 7.70 | < 5.00 | 5.23 | 7.05 | 1 | – | – | – | –
2 | Cc1cc(C)c(S(=O)(=O)NC(Cn2ccc3c(C#N)cccc32)C(F)(F)F)c(C)c1 (stereo not drawn) | 7.22 | < 5.00 | 6.15 | 7.00 | – | – | – | – | –
3 | Cc1cc(C)c(S(=O)(=O)NC(Cc2c[nH]c3cc(C#N)ccc23)C(F)(F)F)c(C)c1 (stereo not drawn) | 6.55 | < 5.00 | 5.70 | 6.55 | 1 | – | – | – | –
4 | Cc1cc(C)c(S(=O)(=O)NC(Cc2c[nH]c3ccc(C#N)cc23)C(F)(F)F)c(C)c1 (stereo not drawn) | 6.49 | < 5.00 | < 5.00 | 6.68 | 1 | – | – | – | –
5 | O=S(=O)(NC(Cc1c[nH]c2ccccc12)C(F)(F)F)c1c(Cl)cc(Cl)cc1Cl (stereo not drawn) | 7.46 | < 5.70 | 5.46 | 7.10 | – | – | – | – | –
6 | Cc1cc(C)c(S(=O)(=O)NC(Cn2ccc3ncccc32)C(F)(F)F)c(C)c1 (stereo not drawn) | 6.47 | < 5.70 | < 5.00 | 6.66 | – | – | – | – | –
7 | Cc1cc(C)c(S(=O)(=O)NC(Cc2c[nH]c3cccc(C)c23)C(F)(F)F)c(C)c1 (stereo not drawn) | 7.74 | < 5.70 | < 5.70 | 7.10 | 1 | – | – | – | –
8 | Cc1cc(C)c(S(=O)(=O)NC(CNc2ccccc2)C(F)(F)F)c(C)c1 (stereo not drawn) | 7.02 | < 5.00 | 5.49 | 6.59 | – | – | – | – | –
9 | Cc1cc(C)c(S(=O)(=O)N[C@@H](C)Cc2c[nH]c3ccccc23)c(C)c1 | 7.40 | < 5.70 | 5.85 | 6.54 | – | – | – | – | –
10 | Cc1cc(C)c(S(=O)(=O)NC(Cn2ccc3ccccc32)C(F)(F)F)c(C)c1 (stereo not drawn) | 7.60 | < 5.00 | 5.62 | 6.92 | – | – | – | – | –
11 | Cc1cc(C)c(S(=O)(=O)NC(CSc2ccccc2)C(F)(F)F)c(C)c1 (stereo not drawn) | 7.70 | < 5.00 | 5.70 | 6.55 | – | – | – | – | –
12 | Cc1cc(C)c(S(=O)(=O)NC(Cc2c[nH]c3cc(C)ccc23)C(F)(F)F)c(C)c1 (stereo not drawn) | 7.43 | < 5.70 | < 5.70 | 6.85 | 1 | – | – | – | –
13 | CC(Cc1c[nH]c2ccccc12)NS(=O)(=O)c1c(Cl)cc(Cl)cc1Cl (stereo not drawn) | – | < 5.70 | – | – | – | – | – | – | –
14 | Cc1cc(C)c(S(=O)(=O)NC(COc2ccccc2)C(F)(F)F)c(C)c1 (stereo not drawn) | 6.68 | < 5.00 | 5.19 | 6.47 | – | – | – | – | –
15 | Cc1cc(C)c(S(=O)(=O)NC(Cc2c[nH]c3cccc(C#N)c23)C(F)(F)F)c(C)c1 (stereo not drawn) | < 5.00 | – | < 5.00 | 6.77 | – | – | – | – | –

Second part, led by results:

Row | pIC50 (Glucocorticoid receptor [1]) | pIC50 (Glucocorticoid receptor [2]) | pIC50 (Progesterone receptor) | pIC50 [3] | Ratio IC50 (Homo sapiens) | half-life [5] [min] | pIC50 (Cytochrome P450 3A4) | Compound | ED50 (Mus musculus [4]) [mg/kg] | ED50 (Mus musculus [6]) [mg/kg]
16 | 7.82 | < 5.70 | 5.28 | 6.33 | – | – | – | CC(C)(Cc1c[nH]c2ccccc12)NS(=O)(=O)c1c(N)cc(Cl)cc1Cl | – | –
17 | 8.00 | 7.25 | < 5.70 | 6.57 | – | – | – | Nc1cc(Cl)cc(Cl)c1S(=O)(=O)NC(Cc1c[nH]c2ccccc12)C(F)(F)F (stereo not drawn) | – | –
18 | 9.00 | 8.15 | 5.82 | 6.48 | 330 | 3 | 5.24 | CC[C@@H](Cn1cc(C#N)c2ccccc21)NS(=O)(=O)c1c(N)cc(Cl)cc1Cl | 100 | 10
19 | 8.70 | < 5.70 | < 5.00 | 6.29 | – | 3 | 6.24 | CC[C@@H](Cn1ccc2ccccc21)NS(=O)(=O)c1c(N)cc(Cl)cc1Cl | – | –
20 | 7.82 | < 5.70 | 5.44 | 7.10 | – | – | – | Cc1cc(C)c(S(=O)(=O)NC(Cc2c[nH]c3ccccc23)C(F)(F)F)c(C)c1 (stereo not drawn) | – | –
21 | 8.00 | 6.68 | 5.22 | 7.05 | 1 | – | – | Cc1cc(C)c(S(=O)(=O)NC(Cc2c[nH]c3ccc(C)cc23)C(F)(F)F)c(C)c1 (stereo not drawn) | – | –
22 | 8.70 | 8.00 | 5.30 | 6.59 | – | 2 | 6.03 | CC[C@@H](Cn1cc(C)c2ccccc21)NS(=O)(=O)c1c(N)cc(Cl)cc1Cl | – | –
23 | 8.30 | 7.82 | 6.12 | 6.96 | 22 | – | – | Cc1cc(C)c(S(=O)(=O)NC(Cc2c[nH]c3c(C#N)cc(C)cc23)C(F)(F)F)c(C)c1 (stereo not drawn) | – | –
24 | 8.30 | 6.92 | < 5.70 | 6.29 | 102 | – | – | CC(Cc1c[nH]c2ccccc12)NS(=O)(=O)c1c(N)cc(Cl)cc1Cl (stereo not drawn) | – | –
25 | 7.82 | < 5.70 | 6.28 | 7.19 | – | – | – | Cc1cc(C)c(S(=O)(=O)NC(Cn2cc(C#N)c3ccccc32)C(F)(F)F)c(C)c1 (stereo not drawn) | – | –
26 | 8.00 | 7.35 | 6.27 | 7.15 | 1 | – | – | Cc1cc(C)c(S(=O)(=O)NC(Cc2c[nH]c3c(C#N)cccc23)C(F)(F)F)c(C)c1 (stereo not drawn) | – | –

From ChEMBL document CHEMBL3091451, “Function-regulating pharmacophores in a sulfonamide class of glucocorticoid receptor agonists” (Bioorg Med Chem Lett, 2013)
